Test results as given in patent publication US20160362416A1, “ANTIVIRAL COMPOUNDS” (Gilead Sciences, Inc., priority 2012, published 2016).

Experiments:
[1] = system: stable HCV 1b RLuc replicon cells (genotype 1b Con1 replicon); assay: HCV genotype 1b RLuc replicon reporter assay; assay type: cell-based; settings: Hepatitis C virus; stable genotype 1b Con1 RLuc replicon cells, 72 hours
How it was run: (§1)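 EC50 derived by non-linear regression of Renilla luciferase signal measured in lysates 72 h after adding 3-fold serial compound dilutions. Replicons: stable genotype 1b Con1 cells; transient Huh-Lunet transfections of NS5A chimeras—4a ED43 or 3a S52 in Con1, 2b MD2b-1 (M31) in JFH-1.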

[2] = system: stable HCV 1a RLuc replicon cells (genotype 1a H77 replicon); assay: HCV genotype 1a RLuc replicon reporter assay; assay type: cell-based; settings: Hepatitis C virus; stable genotype 1a H77 RLuc replicon cells, 72 hours
[3] = system: NS5A chimeric genotype 2a JFH-1 replicon with genotype 2b MD2b-1 strain NS5A gene (M31); assay: HCV genotype 2b NS5A chimeric replicon assay, stable (s); assay type: cell-based; settings: Hepatitis C virus, 72 h, read-out: 2b (s) (nM)
[4] = system: NS5A chimeric genotype 1b Con1 replicon with genotype 3a S52 strain NS5A gene; assay: HCV genotype 3a NS5A chimeric replicon assay; assay type: cell-based; settings: Hepatitis C virus, 72 h, read-out: 3a (nM)
How it was run: as §1

[5] = system: Q30E in genotype 1a NS5A replicon; assay: Resistance mutant replicon assay, genotype 1a NS5A Q30E; assay type: cell-based, HCV; settings: Hepatitis C virus, read-out: 1a Q30E (nM)
Procedure: (§2) Evaluation of cell-based anti-HCV activity: Antiviral potency (EC50) was determined using a Renilla luciferase (RLuc)-based HCV replicon reporter assay. To perform the assay for genotype 1 and 2a JFH-1, stable HCV 1a RLuc replicon cells (harboring a dicistronic genotype 1a H77 replicon that encodes a RLuc reporter), stable HCV lb RLuc replicon cells (harboring a dicistronic genotype 1b Conl replicon that encodes a RLuc reporter), or stable HCV 2a JFH-1 Rluc replicon cells (harboring a dicistronic genotype 2a JFH-1 replicon that encodes a RLuc reporter; with L31 present in NS5A) were dispensed into 384-well plates for EC50 assays. To perform the assay for genotype 2a (with M31 present in NS5A) or 2b, NS5A chimeric genotype 2a JFH-1 replicons that encodes a RLuc-Neo reporter and either genotype 2a J6 strain NS5A gene or genotype 2b MD2b-1 strain NS5A gene (both with M31 present) respectively, were either transiently transfected (t) into Huh-Lunet cells or were established as stably replicating replicon cells (s) is provided. Either cells were dispensed into 384-well plates for EC50 assays. To perform the assay for genotype 3 and 4, NS5A chimeric genotype 1b Conl replicons that encodes a Pi-RLuc reporter and either genotype 3a S52 strain NS5A gene or genotype 4a ED43 strain NS5A gene respectively, were transiently transfected (t) into Huh-Lunet cells, which were subsequently dispensed into 384-well plates. Compounds were dissolved in DMSO at a concentration of 10 mM and diluted in DMSO either manually or using an automated pipeting instrument. Serially 3-fold diluted compounds were either manually mixed with cell culture media and added to the seeded cells or directly added to the cells using an automated instrument. DMSO was used as a negative (solvent; no inhibition) control, and the protease inhibitor ITMN-191 was included at a concentration >100×EC50 as a positive control. 72 hours later, cells were lysed and Renilla luciferase activity quantified as recommended by the manufacturer (Promega-Madison, Wis.). Non-linear regression was performed to calculate EC50 values.
(§3) To determine the antiviral potency (EC50) against resistance mutants, resistance mutations, including M28T, Q30R, Q30H, Q30E, L31M, Y93C, Y93H, and Y93N in genotype 1a NS5A, Y93H and L31V/Y93H in genotype 1b NS5A, and Y93H for in genotype 3a NS5A, were introduced individually into either 1a Pi-Rluc or 1b Pi-Rluc replicons by site directed mutagenesis. Replicon RNA of each resistant mutant was transiently transfected into Huh-7-derived cured-51 cells and antiviral potency was determined on these transfected cells as described above.

[6] = system: Y93H in genotype 1a NS5A replicon; assay: Resistance mutant replicon assay, genotype 1a NS5A Y93H; assay type: cell-based, HCV; settings: Hepatitis C virus, read-out: 1a Y93H (nM)
Procedure: as §2, §3

[7] = system: Y93N in genotype 1a NS5A replicon; assay: Resistance mutant replicon assay, genotype 1a NS5A Y93N; assay type: cell-based, HCV; settings: Hepatitis C virus, read-out: 1a Y93N (nM)
Procedure: as §2, §3

[8] = system: NS5A chimeric genotype 1b Con1 replicon with genotype 4a ED43 strain NS5A gene; assay: HCV genotype 4a NS5A chimeric replicon assay; assay type: cell-based; settings: Hepatitis C virus, 72 h, read-out: 4a (s) (nM)
[9] = system: Y93H in genotype 3a NS5A replicon; assay: Resistance mutant replicon assay, genotype 3a NS5A Y93H; assay type: cell-based, HCV; settings: Hepatitis C virus, read-out: 3a Y93H (nM)
Procedure: as §2, §3

[10] = system: stable HCV 2a JFH-1 Rluc replicon cells (L31 present in NS5A); assay: HCV genotype 2a JFH-1 RLuc replicon reporter assay; assay type: cell-based; settings: Hepatitis C virus, 72 h, read-out: 2a JFH (nM)
[11] = system: NS5A chimeric genotype 2a JFH-1 replicon with genotype 2a J6 strain NS5A gene (M31); assay: HCV genotype 2a J6 NS5A chimeric replicon assay, transient (t); assay type: cell-based; settings: Hepatitis C virus, 72 h, read-out: 2a J6 (t) (nM)
[12] = system: NS5A chimeric genotype 2a JFH-1 replicon with genotype 2b MD2b-1 strain NS5A gene (M31); assay: HCV genotype 2b NS5A chimeric replicon assay, transient (t); assay type: cell-based; settings: Hepatitis C virus, 72 h, read-out: 2b (t) (nM)
Procedure: as §2

SMILES	EC50 [1] [nM]	EC50 [2] [nM]	EC50 [3] [nM]	EC50 [4] [nM]	EC50 [5] [nM]	EC50 [6] [nM]	EC50 [7] [nM]	EC50 [8] [nM]	EC50 [9] [nM]	EC50 [10] [nM]	EC50 [11] [nM]	EC50 [12] [nM]
COC(=O)N[C@H](C(=O)N1[C@H](c2ncc(-c3ccc4c(c3)COc3cc5c(ccc6nc([C@@H]7CC[C@H](C)N7C(=O)[C@@H](NC(=O)OC)C7CCOCC7)[nH]c65)cc3-4)[nH]2)C[C@@H]2CCC[C@@H]21)C(C)C [Comp 8, reference compound]	0.04	0.028	0.113	0.071	0.979	1.9	4.58	–	–	–	–	–
COC(=O)N[C@H](C(=O)N1[C@@H](C)CC[C@H]1c1ncc(-c2ccc3c(c2)COc2cc4c(ccc5nc([C@@H]6C[C@H](C)CN6C(=O)[C@@H](NC(=O)OC)C6CCOCC6)[nH]c54)cc2-3)[nH]1)C(C)C [Comp 13, reference compound]	0.048	0.025	0.048	–	0.371	1.07	2.13	4.4	4.4	–	–	–
CC[C@H]1C[C@@H](c2ncc(-c3ccc4c(c3)COc3cc5c(ccc6nc([C@@H]7CC[C@H](C)N7C(=O)[C@@H](NC(=O)OC)C(C)C)[nH]c65)cc3-4)[nH]2)N(C(=O)[C@@H](NC(=O)OC)C2C[C@@H](C)O[C@H](C)C2)C1 (stereo partly drawn) [Example AE, Methyl [(1S)-1-[(2R,6R)-2,6-dimethyltetrahydro-2H-pyran-4-yl]-2-{(2S,4S)-4-ethyl-2-[5-(2-{(2S,5S)-1-[N-(methoxycarbonyl)-L-valyl]-5-methylpyrrolidin-2-yl}-1,11-dihydroisochromeno[4′,3′:6,7]naphtho[1,2-d]imidazol-9-yl)-1H-imidazol-2-yl]pyrrolidin-1-yl}-2-oxoethyl]carbamate]	0.022	0.024	–	0.027	–	0.23	1.12	0.011	6.93	0.012	0.042	0.038
COC(=O)N[C@H](C(=O)N1[C@@H](C)CC[C@H]1c1ncc(-c2ccc3c(c2)COc2cc4c(ccc5nc([C@@H]6C[C@H](C)CN6C(=O)[C@@H](NC(=O)OC)C6C[C@@H](C)O[C@H](C)C6)[nH]c54)cc2-3)[nH]1)C(C)C (stereo partly drawn) [Example AV, methyl {(2S)-1-[(2S,5S)-2-(5-{2-[(2S,4S)-1-{(2S)-2-[(2R,6R)-2,6-dimethyltetrahydro-2H-pyran-4-yl]-2-[(methoxycarbonyl)amino]acetyl}-4-methylpyrrolidin-2-yl]-1,11-dihydroisochromeno[4′,3′:6,7]naphtho[1,2-d]imidazol-9-yl}-1H-imidazol-2-yl)-5-methylpyrrolidin-1-yl]-3-methyl-1-oxobutan-2-yl}carbamate]	0.036	0.036	–	0.029	–	0.14	1.05	0.013	2.39	0.011	0.008	0.015
COC(=O)N[C@H](C(=O)N1[C@@H](C)CC[C@H]1c1ncc(-c2ccc3c(c2)COc2cc4c(ccc5nc([C@@H]6CCCN6C(=O)[C@@H](NC(=O)OC)C6C[C@@H](C)O[C@H](C)C6)[nH]c54)cc2-3)[nH]1)C(C)C (stereo partly drawn) [Example AW, methyl {(2S)-1-[(2S,5S)-2-(5-{2-[(2S)-1-{(2S)-2-[(2R,6R)-2,6-dimethyltetrahydro-2H-pyran-4-yl]-2-[(methoxycarbonyl)amino]acetyl}pyrrolidin-2-yl]-1,11-dihydroisochromeno[4′,3′:6,7]naphtho[1,2-d]imidazol-9-yl}-1H-imidazol-2-yl)-5-methylpyrrolidin-1-yl]-3-methyl-1-oxobutan-2-yl}carbamate]	0.07	0.029	–	0.015	–	0.704	1.47	0.008	1.51	0.011	0.021	0.029
CC[C@H](C)[C@H](NC(=O)OC)C(=O)N1[C@H](c2ncc(-c3ccc4c(c3)COc3cc5c(ccc6nc([C@@H]7CC[C@H](C)N7C(=O)[C@@H](NC(=O)OC)C7C[C@@H](C)O[C@H](C)C7)[nH]c65)cc3-4)[nH]2)C[C@@H]2CCC[C@@H]21 (stereo partly drawn) [Example BG, methyl{(2S,3S)-1-[(2S,3aS,6aS)-2-(5-{2-[(2S,5S)-1-{(2S)-2-[(2R,6R)-2,6-dimethyltetrahydro-2H-pyran-4-yl]-2-[(methoxycarbonyl)amino]acetyl}-5-methylpyrrolidin-2-yl]-1,11-dihydroisochromeno[4′,3′:6,7]naphtho[1,2-d]imidazol-9-yl}-1H-imidazol-2-yl)hexahydrocyclopenta[b]pyrrol-1(2H)-yl]-3-methyl-1-oxopentan-2-yl}carbamate]	0.018	0.02	0.039	0.028	–	0.364	0.883	0.017	5.58	0.017	0.045	–
COC(=O)N[C@H](C(=O)N1[C@H](c2nc3ccc4cc5c(cc4c3[nH]2)OCc2cc(-c3cnc([C@@H]4CC[C@H](C)N4C(=O)[C@@H](NC(=O)OC)C4C[C@@H](C)O[C@H](C)C4)[nH]3)ccc2-5)C[C@@H]2CCC[C@@H]21)C(C)C (stereo partly drawn) [Example BI, methyl{(2S)-1-[(2S,3aS,6aS)-2-(9-{2-[(2S,5S)-1-{(2S)-2-[(2R,6R)-2,6-dimethyltetrahydro-2H-pyran-4-yl]-2-[(methoxycarbonyl)amino]acetyl}-5-methylpyrrolidin-2-yl]-1H-imidazol-5-yl}-1,11-dihydroisochromeno[4′,3′:6,7]naphtho[1,2-d]imidazol-2-yl)hexahydrocyclopenta[b]pyrrol-1(2H)-yl]-3-methyl-1-oxobutan-2-yl}carbamate]	0.024	0.012	0.033	0.017	–	0.184	0.466	0.011	3.45	0.011	0.022	–
